Experimental data: PubChem BioAssay (NCI)
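Cells were grown in 96-well plates and exposed to each compound for 48 hours at five concentrations; endpoints were interpolated linearly between bracketing concentrations, or set to the highest concentration if not reached. At the TGI there is no net growth.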

Tests used:
Assay in all cases: NCI anticancer screen, dose series, 48 h
HCT-15 colon = system: HCT-15 colon
COLO 205 colon = system: COLO 205 colon
M19-MEL melanoma = system: M19-MEL melanoma
SNB-19 CNS = system: SNB-19 CNS
SN12C renal = system: SN12C renal
HOP-62 NSCLC = system: HOP-62 NSCLC
SNB-75 CNS = system: SNB-75 CNS
CCRF-CEM leukemia = system: CCRF-CEM leukemia
NCI-H460 lung = system: NCI-H460 lung
K-562 leukemia = system: K-562 leukemia
SW-620 colon = system: SW-620 colon
SK-MEL-5 melanoma = system: SK-MEL-5 melanoma
KM12 colon = system: KM12 colon
EKVX NSCLC = system: EKVX NSCLC
OVCAR-8 ovarian = system: OVCAR-8 ovarian
LXFL 529 NSCLC = system: LXFL 529 NSCLC
UACC-62 melanoma = system: UACC-62 melanoma
KM20L2 colon = system: KM20L2 colon
SF-539 CNS = system: SF-539 CNS
DLD-1 colon = system: DLD-1 colon
SK-MEL-2 melanoma = system: SK-MEL-2 melanoma
SF-268 CNS = system: SF-268 CNS
HL-60(TB) leukemia = system: HL-60(TB) leukemia
LOX IMVI melanoma = system: LOX IMVI melanoma
U251 CNS = system: U251 CNS
RXF 393 renal = system: RXF 393 renal
OVCAR-5 ovarian = system: OVCAR-5 ovarian
OVCAR-3 ovarian = system: OVCAR-3 ovarian
MOLT-4 leukemia = system: MOLT-4 leukemia
HOP-92 NSCLC = system: HOP-92 NSCLC
SNB-78 CNS = system: SNB-78 CNS
A549 NSCLC = system: A549 NSCLC
MALME-3M melanoma = system: MALME-3M melanoma
HCT-116 colon = system: HCT-116 colon
OVCAR-4 ovarian = system: OVCAR-4 ovarian
A498 renal = system: A498 renal
UACC-257 melanoma = system: UACC-257 melanoma
TK-10 renal = system: TK-10 renal
ACHN renal = system: ACHN renal
HOP-18 NSCLC = system: HOP-18 NSCLC
NCI-H23 lung = system: NCI-H23 lung
HT29 colon = system: HT29 colon
HCC-2998 colon = system: HCC-2998 colon
CAKI-1 renal = system: CAKI-1 renal
RPMI-8226 leukemia = system: RPMI-8226 leukemia
SF-295 CNS = system: SF-295 CNS
SK-OV-3 ovarian = system: SK-OV-3 ovarian
IGROV1 ovarian = system: IGROV1 ovarian
DMS 273 small cell lung = system: DMS 273 small cell lung
UO-31 renal = system: UO-31 renal
786-0 renal = system: 786-0 renal
M14 melanoma = system: M14 melanoma
NCI-H522 lung = system: NCI-H522 lung
XF 498 CNS = system: XF 498 CNS
DMS 114 small cell lung = system: DMS 114 small cell lung

How did the TGI (HCT-15 colon) turn out when `CN1CCc2c1nc(-c1ccccc1)c1c2N(C)CC1` was run?
The TGI was greater than 100 µM.

What about the TGI (COLO 205 colon) of the same compound?
Its TGI is greater than 100 µM.

And the TGI (M19-MEL melanoma)?
Its TGI is greater than 100 µM.

What about the TGI (SNB-19 CNS) of the same compound?
Its TGI is greater than 100 µM.

And the TGI (SN12C renal)?
Its TGI is greater than 100 µM.

What about the TGI (HOP-62 NSCLC) of the same compound?
The TGI was greater than 100 µM.

What about the TGI (SNB-75 CNS) of the same compound?
The TGI was greater than 100 µM.

And the TGI (CCRF-CEM leukemia)?
Its TGI is greater than 100 µM.

And the TGI (NCI-H460 lung)?
The TGI was greater than 100 µM.

What about the TGI (K-562 leukemia) of the same compound?
The TGI was greater than 100 µM.

And the TGI (SW-620 colon)?
Its TGI is greater than 100 µM.

And the TGI (SK-MEL-5 melanoma)?
The TGI was greater than 100 µM.

What about the TGI (KM12 colon) of the same compound?
Its TGI is greater than 100 µM.

And the TGI (EKVX NSCLC)?
The TGI was greater than 100 µM.

And the TGI (OVCAR-8 ovarian)?
The TGI was greater than 100 µM.

What about the TGI (LXFL 529 NSCLC) of the same compound?
Its TGI is greater than 100 µM.

And the TGI (UACC-62 melanoma)?
The TGI was greater than 100 µM.

What about the TGI (KM20L2 colon) of the same compound?
The TGI was greater than 100 µM.

And the TGI (SF-539 CNS)?
The TGI was greater than 100 µM.

What about the TGI (DLD-1 colon) of the same compound?
Its TGI is greater than 100 µM.

What about the TGI (SK-MEL-2 melanoma) of the same compound?
Its TGI is greater than 100 µM.

And the TGI (SF-268 CNS)?
The TGI was greater than 100 µM.

What about the TGI (HL-60(TB) leukemia) of the same compound?
Its TGI is greater than 100 µM.

What about the TGI (LOX IMVI melanoma) of the same compound?
The TGI was greater than 100 µM.

What about the TGI (U251 CNS) of the same compound?
Its TGI is greater than 100 µM.

What about the TGI (RXF 393 renal) of the same compound?
The TGI was greater than 100 µM.

What about the TGI (OVCAR-5 ovarian) of the same compound?
The TGI was greater than 100 µM.

And the TGI (OVCAR-3 ovarian)?
Its TGI is greater than 100 µM.

And the TGI (MOLT-4 leukemia)?
The TGI was greater than 100 µM.

And the TGI (HOP-92 NSCLC)?
Its TGI is 91 µM.

What about the TGI (SNB-78 CNS) of the same compound?
Its TGI is greater than 100 µM.

What about the TGI (A549 NSCLC) of the same compound?
The TGI was greater than 100 µM.

And the TGI (MALME-3M melanoma)?
The TGI was greater than 100 µM.

And the TGI (HCT-116 colon)?
Its TGI is greater than 100 µM.

And the TGI (OVCAR-4 ovarian)?
Its TGI is greater than 100 µM.

And the TGI (A498 renal)?
Its TGI is greater than 100 µM.

And the TGI (UACC-257 melanoma)?
The TGI was greater than 100 µM.

What about the TGI (TK-10 renal) of the same compound?
The TGI was greater than 100 µM.

And the TGI (ACHN renal)?
The TGI was greater than 100 µM.

What about the TGI (HOP-18 NSCLC) of the same compound?
Its TGI is 78.6 µM.

What about the TGI (NCI-H23 lung) of the same compound?
Its TGI is greater than 100 µM.

And the TGI (HT29 colon)?
The TGI was greater than 100 µM.

And the TGI (HCC-2998 colon)?
The TGI was greater than 100 µM.

What about the TGI (CAKI-1 renal) of the same compound?
The TGI was greater than 100 µM.

What about the TGI (RPMI-8226 leukemia) of the same compound?
The TGI was greater than 100 µM.

What about the TGI (SF-295 CNS) of the same compound?
The TGI was greater than 100 µM.

What about the TGI (SK-OV-3 ovarian) of the same compound?
The TGI was greater than 100 µM.

What about the TGI (IGROV1 ovarian) of the same compound?
The TGI was greater than 100 µM.

And the TGI (DMS 273 small cell lung)?
The TGI was greater than 100 µM.

What about the TGI (UO-31 renal) of the same compound?
The TGI was 78.5 µM.

What about the TGI (786-0 renal) of the same compound?
Its TGI is greater than 100 µM.

What about the TGI (M14 melanoma) of the same compound?
Its TGI is greater than 100 µM.

`CCOC(=O)CSc1ccnc(=O)[nH]1` was tested. Which TGI (HCT-15 colon) did it give?
The TGI was greater than 100 µM.

What about the TGI (COLO 205 colon) of the same compound?
The TGI was greater than 100 µM.

What about the TGI (M19-MEL melanoma) of the same compound?
Its TGI is greater than 100 µM.

And the TGI (SNB-19 CNS)?
Its TGI is greater than 100 µM.

And the TGI (SN12C renal)?
The TGI was greater than 100 µM.

What about the TGI (SNB-75 CNS) of the same compound?
Its TGI is greater than 100 µM.

What about the TGI (CCRF-CEM leukemia) of the same compound?
Its TGI is greater than 100 µM.

And the TGI (NCI-H460 lung)?
Its TGI is greater than 100 µM.

What about the TGI (NCI-H522 lung) of the same compound?
Its TGI is greater than 100 µM.

And the TGI (K-562 leukemia)?
The TGI was greater than 100 µM.

And the TGI (SW-620 colon)?
Its TGI is greater than 100 µM.

What about the TGI (SK-MEL-5 melanoma) of the same compound?
The TGI was greater than 100 µM.

And the TGI (KM12 colon)?
The TGI was greater than 100 µM.

What about the TGI (EKVX NSCLC) of the same compound?
Its TGI is greater than 100 µM.

And the TGI (OVCAR-8 ovarian)?
Its TGI is greater than 100 µM.

What about the TGI (LXFL 529 NSCLC) of the same compound?
The TGI was greater than 100 µM.

And the TGI (UACC-62 melanoma)?
Its TGI is greater than 100 µM.

What about the TGI (KM20L2 colon) of the same compound?
The TGI was greater than 100 µM.

What about the TGI (SF-539 CNS) of the same compound?
Its TGI is greater than 100 µM.

What about the TGI (XF 498 CNS) of the same compound?
The TGI was greater than 100 µM.

What about the TGI (SK-MEL-2 melanoma) of the same compound?
Its TGI is greater than 100 µM.

And the TGI (SF-268 CNS)?
Its TGI is greater than 100 µM.

What about the TGI (HL-60(TB) leukemia) of the same compound?
The TGI was greater than 100 µM.

And the TGI (LOX IMVI melanoma)?
Its TGI is greater than 100 µM.

And the TGI (U251 CNS)?
Its TGI is greater than 100 µM.

What about the TGI (RXF 393 renal) of the same compound?
Its TGI is greater than 100 µM.

And the TGI (OVCAR-5 ovarian)?
Its TGI is greater than 100 µM.

What about the TGI (OVCAR-3 ovarian) of the same compound?
The TGI was greater than 100 µM.

And the TGI (MOLT-4 leukemia)?
The TGI was greater than 100 µM.

And the TGI (DMS 114 small cell lung)?
Its TGI is greater than 100 µM.

And the TGI (SNB-78 CNS)?
The TGI was greater than 100 µM.

What about the TGI (A549 NSCLC) of the same compound?
The TGI was greater than 100 µM.

And the TGI (MALME-3M melanoma)?
Its TGI is greater than 100 µM.

What about the TGI (HCT-116 colon) of the same compound?
The TGI was greater than 100 µM.

What about the TGI (A498 renal) of the same compound?
The TGI was greater than 100 µM.

What about the TGI (UACC-257 melanoma) of the same compound?
The TGI was greater than 100 µM.

And the TGI (TK-10 renal)?
The TGI was greater than 100 µM.

And the TGI (ACHN renal)?
The TGI was greater than 100 µM.

What about the TGI (HT29 colon) of the same compound?
Its TGI is greater than 100 µM.

And the TGI (CAKI-1 renal)?
The TGI was greater than 100 µM.

And the TGI (RPMI-8226 leukemia)?
The TGI was greater than 100 µM.

And the TGI (SF-295 CNS)?
Its TGI is greater than 100 µM.

And the TGI (SK-OV-3 ovarian)?
The TGI was greater than 100 µM.

And the TGI (IGROV1 ovarian)?
The TGI was greater than 100 µM.

And the TGI (DMS 273 small cell lung)?
The TGI was greater than 100 µM.

And the TGI (UO-31 renal)?
The TGI was greater than 100 µM.

And the TGI (786-0 renal)?
The TGI was greater than 100 µM.

And the TGI (M14 melanoma)?
Its TGI is greater than 100 µM.
